The assay concerns the target PARP7 (Homo sapiens (Human), UniProt Q7Z3E1). In words: Enzymatic assay for inhibition of PARP7: TR-FRET displacement of biotinylated Probe A from the TIPARP active site. The following applies: Table A-1. The assay is classed as binding. The method in brief:
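Read-out: 665/615 nm emission ratio (ex 320 nm, 90 μs delay) indexing bound TIPARP–Probe A. Final incubation 30 min, 25° C; compounds in dose response. Curve fit of % inhibition vs concentration; Hill slope floating or fixed at 1 (3-parameter).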
Background: In TR-FRET formats the signal depends on donor and acceptor labels being close together.

This is an account of results in US10550105B2 (Ribon Therapeutics Inc., priority 2018, dated 2020).

Sequence of PARP7 (Q7Z3E1 whole entry): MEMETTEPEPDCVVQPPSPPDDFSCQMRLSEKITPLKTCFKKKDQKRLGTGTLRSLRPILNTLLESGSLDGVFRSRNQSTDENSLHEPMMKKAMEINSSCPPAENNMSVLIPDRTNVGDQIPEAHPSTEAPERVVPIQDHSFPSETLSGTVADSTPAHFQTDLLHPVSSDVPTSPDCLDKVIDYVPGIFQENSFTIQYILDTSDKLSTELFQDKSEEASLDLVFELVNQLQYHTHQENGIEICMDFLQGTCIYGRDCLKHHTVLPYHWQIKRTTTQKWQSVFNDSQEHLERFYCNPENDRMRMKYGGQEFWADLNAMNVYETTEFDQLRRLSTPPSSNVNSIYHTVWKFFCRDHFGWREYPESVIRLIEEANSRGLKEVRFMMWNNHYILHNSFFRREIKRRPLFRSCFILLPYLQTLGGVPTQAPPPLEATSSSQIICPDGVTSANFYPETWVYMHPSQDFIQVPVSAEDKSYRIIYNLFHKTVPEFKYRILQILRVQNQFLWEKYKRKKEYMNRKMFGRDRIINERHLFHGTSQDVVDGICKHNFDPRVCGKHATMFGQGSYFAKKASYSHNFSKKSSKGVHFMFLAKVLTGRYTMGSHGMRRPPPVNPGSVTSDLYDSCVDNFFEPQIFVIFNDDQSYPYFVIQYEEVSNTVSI

In general, IC50 refers to the concentration at which inhibition is half-maximal. Higher therefore signals weaker potency. In turn, `N#Cc1ccc(N2CCN(C(=O)CCOCCOc3cn[nH]c(=O)c3Br)CC2)nc1` [Example 555, 6-[4-(3-[2-[(5-Bromo-6-oxo-1,6-dihydropyridazin-4-yl)oxy]ethoxy]propanoyl)piperazin-1-yl]pyridine-3-carbonitrile] came in with an IC50 below 100 nM.
As for `C[C@H](COCCC(=O)N1CCN(c2ncc(Cl)cn2)CC1)Nc1cn[nH]c(=O)c1C(F)(F)F` [Example 556, 5-[[(2R)-1-[3-[4-(5-Chloropyrimidin-2-yl)piperazin-1-yl]-3-oxopropoxy]propan-2-yl]amino]-4-(trifluoromethyl)-2,3-dihydropyridazin-3-one], the half-maximal inhibitory concentration (IC50) fell in the range of 100 to 1000 nM.
For the molecule `COC[C@H](COCCC(=O)N1CCN(c2ncc(Cl)cn2)CC1)Nc1cn[nH]c(=O)c1C(F)(F)F` [Example 557, 5-[[(2R)-1-[3-[4-(5-Chloropyrimidin-2-yl)piperazin-1-yl]-3-oxopropoxy]-3-methoxypropan-2-yl]amino]-4-(trifluoromethyl)-2,3-dihydropyridazin-3-one], the 50% inhibitory concentration (IC50) is below 100 nM.
Next, `COC[C@@H](COCCC(=O)N1CCN(c2ncc(Cl)cn2)CC1)Nc1cn[nH]c(=O)c1C(F)(F)F` [Example 558, 5-[[(2S)-1-[3-[4-(5-Chloropyrimidin-2-yl)piperazin-1-yl]-3-oxopropoxy]-3-methoxypropan-2-yl]amino]-4-(trifluoromethyl)-2,3-dihydropyridazin-3-one]: below 100 nM; `COC[C@@H](COCCC(=O)N1CCN(c2ncc(C(F)(F)F)cn2)CC1)Nc1cn[nH]c(=O)c1C(F)(F)F` [Example 559, 5-[[(2S)-1-Methoxy-3-(3-oxo-3-[4-[5-(trifluoromethyl)pyrimidin-2-yl]piperazin-1-yl]propoxy)propan-2-yl]amino]-4-(trifluoromethyl)-2,3-dihydropyridazin-3-one]: below 100 nM; `C[C@@H](COCCC(=O)N1CCN(c2ncc(Cl)cn2)CC1)Nc1cn[nH]c(=O)c1C(F)(F)F` [Example 562, 5-[[(2S)-1-[3-[4-(5-Chloropyrimidin-2-yl)piperazin-1-yl]-3-oxopropoxy]propan-2-yl]amino]-4-(trifluoromethyl)-2,3-dihydropyridazin-3-one]: below 100 nM.
Next, `C[C@@H](COCCC(=O)N1CCN(c2ccc(Cl)cn2)CC1)Nc1cn[nH]c(=O)c1C(F)(F)F` [Example 563, 5-[[(2S)-1-[3-[4-(5-Chloropyridin-2-yl)piperazin-1-yl]-3-oxopropoxy]propan-2-yl]amino]-4-(trifluoromethyl)-2,3-dihydropyridazin-3-one]: below 100 nM.
Next, `C[C@@H](COCCC(=O)N1CCN(c2ccc(C(F)(F)F)cn2)CC1)Nc1cn[nH]c(=O)c1C(F)(F)F` [Example 564, 5-[[(2S)-1-(3-Oxo-3-[4-[5-(trifluoromethyl)pyridin-2-yl]piperazin-1-yl]propoxy)propan-2-yl]amino]-4-(trifluoromethyl)-2,3-dihydropyridazin-3-one]: below 100 nM.
The molecule `O=C(C[C@H]1CC[C@@H](CNc2cn[nH]c(=O)c2C(F)(F)F)O1)N1CCN(c2ncc(C(F)(F)F)cn2)CC1` [Example 568 Isomer C, 5-((((2S,5R)-5-(2-Oxo-2-(4-(5-(trifluoromethyl)pyrimidin-2-yl)piperazin-1-yl)ethyl)tetrahydrofuran-2-yl)methyl)amino)-4-(trifluoromethyl)pyridazin-3(2H)-one] came in with an IC50 below 100 nM.
`O=C(C[C@@H]1CC[C@H](CNc2cn[nH]c(=O)c2C(F)(F)F)O1)N1CCN(c2ncc(C(F)(F)F)cn2)CC1` [Example 568 Isomer D, 5-((((2R,5S)-5-(2-Oxo-2-(4-(5-(trifluoromethyl)pyrimidin-2-yl)piperazin-1-yl)ethyl)tetrahydrofuran-2-yl)methyl)amino)-4-(trifluoromethyl)pyridazin-3(2H)-one] came in with a 50% inhibitory concentration (IC50) below 100 nM.
The value for `CC(CC(=O)N1CCN(c2ccc(C#N)cn2)CC1)OC[C@@H](C)Oc1cn[nH]c(=O)c1C(F)(F)F` (stereo partly drawn) [Example 569, 6-(4-[3-[(2R)-2-[[6-Oxo-5-(trifluoromethyl)-1,6-dihydropyridazin-4-yl]oxy]propoxy]butanoyl]piperazin-1-yl)pyridine-3-carbonitrile] was 100 to 1000 nM; that for `O=C(C[C@H]1CC[C@@H](COc2cn[nH]c(=O)c2C(F)(F)F)O1)N1CCN(c2ncc(C(F)(F)F)cn2)CC1` [Example 574 Isomer C, 5-(((2S,5R)-5-(2-Oxo-2-(4-(5-(trifluoromethyl)pyrimidin-2-yl)piperazin-1-yl)ethyl)-tetrahydrofuran-2-yl)methoxy)-4-(trifluoromethyl)pyridazin-3(2H)-one] was below 100 nM.
`O=C(C[C@@H]1CC[C@H](COc2cn[nH]c(=O)c2C(F)(F)F)O1)N1CCN(c2ncc(C(F)(F)F)cn2)CC1` [Example 574 Isomer D, 5-(((2R,5S)-5-(2-Oxo-2-(4-(5-(trifluoromethyl)pyrimidin-2-yl)piperazin-1-yl)ethyl)-tetrahydrofuran-2-yl)methoxy)-4-(trifluoromethyl)pyridazin-3(2H)-one]: the IC50 is below 100 nM.
Next, `O=C(C[C@H]1CC[C@@H](COc2cn[nH]c(=O)c2Cl)O1)N1CCN(c2ncc(C(F)(F)F)cn2)CC1` [Example 575 Isomer C, 4-Chloro-5-(((2S,5R)-5-(2-oxo-2-(4-(5-(trifluoromethyl)pyrimidin-2-yl)piperazin-1-yl)ethyl)-tetrahydrofuran-2-yl)methoxy)pyridazin-3(2H)-one]: 100 to 1000 nM.
Next, `O=C(C[C@@H]1CC[C@H](COc2cn[nH]c(=O)c2Cl)O1)N1CCN(c2ncc(C(F)(F)F)cn2)CC1` [Example 575 Isomer D, 4-Chloro-5-(((2R,5S)-5-(2-oxo-2-(4-(5-(trifluoromethyl)pyrimidin-2-yl)piperazin-1-yl)ethyl)-tetrahydrofuran-2-yl)methoxy)pyridazin-3(2H)-one]: at least 1000 nM; `C[C@@H](COc1cn[nH]c(=O)c1Cl)OCCC(=O)N1CCN(c2ncc(C(F)(F)F)cn2)CC1` [Example 578 Isomer B, (S)-4-Chloro-5-(2-(3-oxo-3-(4-(5-(trifluoromethyl)pyrimidin-2-yl)piperazin-1-yl)propoxy)propoxy)pyridazin-3(2H)-one]: below 100 nM; `C[C@@H](COCCC(=O)N1CCN(c2ncc(C#N)cn2)CC1)Oc1cn[nH]c(=O)c1C(F)(F)F` [Example 579, 2-(4-[3-[(2S)-2-[[6-Oxo-5-(trifluoromethyl)-1,6-dihydropyridazin-4-yl]oxy]propoxy]propanoyl]piperazin-1-yl)pyrimidine-5-carbonitrile]: below 100 nM.
Next, `N#Cc1ccc(N2CCN(C(=O)C[C@H]3CC[C@@H](COc4cn[nH]c(=O)c4C(F)(F)F)O3)CC2)nc1` [Example 580 Isomer C, 6-(4-[2-[(2R,5S)-5-([[6-oxo-5-(trifluoromethyl)-1,6-dihydropyridazin-4-yl]oxy]methyl)oxolan-2-yl]acetyl]piperazin-1-yl)pyridine-3-carbonitrile]: below 100 nM.
The molecule `N#Cc1ccc(N2CCN(C(=O)C[C@@H]3CC[C@H](COc4cn[nH]c(=O)c4C(F)(F)F)O3)CC2)nc1` [Example 580 Isomer D, 6-(4-[2-[(2S,5R)-5-([[6-oxo-5-(trifluoromethyl)-1,6-dihydropyridazin-4-yl]oxy]methyl)oxolan-2-yl]acetyl]piperazin-1-yl)pyridine-3-carbonitrile] had an IC50 below 100 nM.
